Active and inactive are the calls of the source.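 How the source made its calls: active means compounds giving half or more protection of infected cells from virus-caused growth loss, again on retest; inactive means the rest.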
Test system: CEM cells HIV-1 protection, formazan growth assay
Assay: NCI AIDS Antiviral Assay
Settings: for IC50: measured here: growth of uninfected CEM cells
Method in brief: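 Human CEM cells, uninfected and HIV-1-infected, received five drug concentrations, and growth was read by soluble formazan assay. Compounds giving at least 50% protection were retested; reproducible 100% protection defined confirmed active.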

Compound	EC50 [µM]	IC50 [µM]	outcome
O=C(CC(=O)N1N=C(N(c2ccccc2)c2ccccc2)CC1c1ccccc1)Nc1cccc(Cl)c1 (stereo not given)	25.1	> 200	–
COc1ccc2oc3c4c2c1CCC4CCC3=O (stereo not given)	–	–	inactive
COC(=O)CCC1(C)C2CCC1/C(=N/O)C2 (stereo not given)	> 200	> 200	–
CC1=C(/C=C/C(C)=C/C=C(C(=O)O)\C(C)=C\C(=O)O)C(C)(C)CCC1	> 200	> 200	–
Brc1ccc2[nH]c3nc(N/N=C/c4cccnc4)nnc3c2c1	> 200	> 200	–
COC(=O)C1Cc2c([nH]c3ccccc23)-c2[nH]c3ccccc3c2CC(NC(C)=O)C(=O)N2CCCC2C(=O)N1 (stereo not given)	> 200	36.3	–
Cc1cc2c(c(C(=O)NCCC(=O)O)c1)Oc1c(cc(C)cc1C(=O)NCCC(=O)O)S2	> 200	> 200	–
COc1ccc2c(c1)C1=C(CC2)C(=O)OC1=O	–	–	inactive
CCO[C@@H]1OC(=O)[C@H]2C(c3ccccc3)=NO[C@@H]12	> 275	> 275	–
Cc1ccc(C2NC(=O)N3C(c4ccc(C)cc4)NC(=O)N23)cc1 (stereo not given)	> 200	30.2	–
CC(C)(C)OC(=O)CN1CCNCCNCC1	> 100	> 100	–
CC(=O)OCC1OC(n2c(C)cc(-c3ccc(Cl)cc3)c(C#N)c2=S)C(OC(C)=O)C(OC(C)=O)C1OC(C)=O (stereo not given)	> 200	30.2	–
CSc1ncnc2c1ncn2C1CC(Oc2ccc(C)cc2)C(COc2ccc(C)cc2)O1 (stereo not given)	> 200	30.9	–
CC1C2CC(CC23OCC(CCl)O3)C1(C)C (stereo not given)	> 200	> 200	–
N#CSC1=C(SC#N)C(=O)c2ccccc2C1=O	> 200	12.3	–
O=[N+]([O-])c1[nH]cnc1S	> 200	> 200	–
Cn1c(-c2cccs2)cc(-c2ccccc2)c1-c1cccs1	> 200	> 200	–
CC(C)=CC(=O)c1c(C(=O)O)nc2ccccc2[n+]1[O-]	–	–	inactive
COC(=O)c1cc2ccccc2c(=O)s1	> 16.2	> 16.2	–
O=C1C=C(Nc2ccc(Cl)cc2C(=O)c2ccccc2)c2ccccc2C1=O	> 174	> 174	–
CC(=O)N(CN1C(=O)CCC1C(=O)O)c1ccc(C)cc1 (stereo not given)	–	–	inactive
CN1C(=O)CN2C(Cl)(Cl)C2(c2ccccc2)c2cc(Cl)ccc21 (stereo not given)	> 200	120	–

Compound	EC50 [µM]	IC50 [µM]	outcome
CN(C)C(=N)OCc1ccccc1	> 200	> 200	–
O=S(=O)(O)C1=C2Sc3ccccc3N=C2c2ccccc2C1	> 141	7.94	–
CC(=O)N1[C@H](C(=O)O)CS[C@H]1c1ccncc1	–	–	inactive
CCOC(=O)/C=C/C(=O)O/C=C/[N+](=O)[O-]	182	> 200	–
OCC(O)COc1c(Cl)cc(Cl)cc1Cl (stereo not given)	> 251	> 251	–
Cc1c(C(=O)c2ccccc2)n(COCCC[Se]c2ccccc2)c(=O)[nH]c1=O	> 200	18.2	–
COC(=O)[C@@H]1C[C@@]23CCCN4CC[C@@]5(c6cccc(OC)c6N(C=O)[C@]15CC2)[C@@H]43	> 66.1	> 66.1	–
CCc1cccc(C(=O)NCCN(C)C)c1[N+](=O)[O-]	> 200	> 200	–
O=C(O)C1(C(=O)O)CC2C3C=CC(C3)C2C1 (stereo not given)	> 398	> 398	–
Cc1cc(S(=O)(=O)/N=C(/NN)Nc2ccc(Cl)cc2)c(S)cc1Cl	> 200	10	–
COC(=O)c1cc(Cl)ccc1NC(=O)C1CCCCC1	–	–	inactive
CC(=O)OCC1OC(SC2=N/C(=C\c3ccc(Br)s3)C(=O)N2CN2CCOCC2)C(OC(C)=O)C(OC(C)=O)C1OC(C)=O (stereo not given)	> 200	9.33	–
NC(N)=N/N=C/c1c(-c2ccc(Cl)cc2)nc2sc(Cl)cn12	> 20	1.07	–
Cn1cc(NC(=O)c2cc(NC(=O)CCCCCCCCCCC(=O)Nc3cc(C(=O)Nc4cc(C(=O)NCCC(=N)N)n(C)c4)n(C)c3)cn2C)cc1C(=O)NCCC(=N)N	4.07	7.76	–
C/C=C(\C)C(=O)OC1CC(OC(C)=O)C2(C(=O)OC)COC3C2C1(C)C1C2(C(=O)OC)OCC1(C3O)C1(O)C3CC(C4(O)C=COC4O3)C1(C)O2 (stereo not given)	> 200	174	–
Cc1ccc2c(c1)SSc1ccc(C)cc1SS2	> 200	110	–
COc1cccc2c(Nc3ccc(S(=O)(=O)NC(C)=O)cc3)c3ccc([N+](=O)[O-])cc3nc12	> 141	95.5	–
CC(C)C(N=C1CC2CCC1(C(=O)Nc1ccccc1O)C2(C)C)c1ccccc1 (stereo not given)	20	32.4	–
Cc1cc[n+](C2=C([O-])C3=C(C(=O)C2=O)C2c4ccccc4C3c3ccccc32)c(C)c1	> 33.9	31.6	–
NC(=O)C(=CN1C(=O)/C(=C/c2ccc([N+](=O)[O-])cc2)SC1=S)C(N)=O	> 200	30.2	–
O=C(N/C(=C\c1cccc([N+](=O)[O-])c1)c1nc2c3c(ccc2[nH]1)C(=O)c1ccccc1C3=O)c1ccccc1	–	–	inactive
O=P(CCOc1ccccc1OCCP(=O)(c1ccccc1)c1ccc2c(c1)OCCOCCOCCOCCO2)(c1ccccc1)c1ccc2c(c1)OCCOCCOCCOCCO2 (stereo not given)	> 263	> 263	–

Compound	EC50 [µM]	IC50 [µM]	outcome
COc1cc2c(cc1Oc1ccc(OC)c3c1CC1c4c(cc(OC)c(OC)c4-3)CCN1C)CC1c3c(cc(OC)c(OC)c3-2)CCN1C (stereo not given)	–	–	inactive
O=C1C(c2ccccc2)=C(c2ccccc2)C(c2ccc(Cc3ccc(C4=C(c5ccccc5)C(=O)C(c5ccccc5)=C4c4ccccc4)cc3)cc2)=C1c1ccccc1	> 1.35	> 1.35	–
Clc1ccc(-c2nnc(-c3nsc4ccccc34)o2)cc1	> 12	> 12	–
C#C[C@]1(O)CCC2C3CCc4cc(Oc5nc(F)nc(-c6c7cc8ccccc8cc7c7n6CCS7)n5)ccc4C3CCC21C (stereo not given in full)	> 200	25.1	–
Cc1csc2nc(-c3ccco3)nn12	> 200	> 200	–
CSCCCNC(=O)c1csc(-c2csc(CCNC(=O)CNC(=O)CNC(=O)OC(C)(C)C)n2)n1	> 447	214	–
O=c1[nH]c2ccsc2c(=O)n1COCc1ccccc1	> 200	> 200	–
COc1ccc(C(=O)O/N=C2/CCC/C2=C\c2ccccc2)cc1	–	–	inactive
Cn1ccnc1CCc1ccc(Cl)cc1Cl	> 708	70.8	–
CN1C=Nc2c(ncn2C2CCC(CO)O2)C1O (stereo not given)	> 200	> 200	–
O=c1oc2c/c(=C\c3ccccn3)c(=O)c3cccc1c3-2	> 200	3.72	–
O=C1NC(=O)C(=Cc2ccc3c(c2)OCO3)C(=O)N1	> 14.5	> 14.5	–
CCOC(=O)CCC(NC(=O)OCc1ccccc1)C(=O)NC(CCC(=O)OCC)C(=O)NC(CCC(=O)OCC)C(=O)NC(CCC(=O)OCC)C(=O)NC(CCC(=O)OCC)C(=O)OCC (stereo not given)	> 100	> 100	–
O=C1CN(O)C(c2ccccc2)=c2cc(Cl)ccc2=N1	> 200	> 200	–
CCN(Cc1cccc(S(=O)(=O)O)c1)c1ccc(C(=C2C=CC(=[N+](CC)Cc3cccc(S(=O)(=O)O)c3)C=C2)c2ccc(S(=O)(=O)O)cc2)cc1	> 112	79.4	–
O=c1oc2ccccc2c(O)c1Cc1cccc(Cc2c(O)c3ccccc3oc2=O)c1	–	–	active
CCOc1ccc(NC(=O)C(=O)CC(=O)c2c(C)n([O-])c3ccccc3[n+]2=O)cc1	> 6.61	> 6.61	–
CC(C)=CCN1Cc2c(F)ccc3[nH]c(=S)n(c23)CC1C (stereo not given)	0.0398	70.8	–
CCNC1C2(CCCCC2)NC(=O)C12CCCCC2 (stereo not given)	–	–	inactive
Oc1ccccc1/C=C/c1csnn1	> 178	> 178	–
CN1CCOC(c2ccc(Cl)cc2)O1 (stereo not given)	–	–	inactive
CC(C)(C)C(=O)C1CC(=O)c2ccccc2C1=O (stereo not given)	> 29.5	> 29.5	–

Compound	EC50 [µM]	IC50 [µM]	outcome
CC(C)(C)C(=O)OCOP(=O)(OCOC(=O)C(C)(C)C)OCC1OC(n2cc(F)c(=O)[nH]c2=O)CC1O (stereo not given)	> 151	2.09	–
CC1=C/C(=N\OCC(=O)O)CC(c2ccc(C(C)C)cc2)C1 (stereo not given)	> 200	97.7	–
CN1C2(c3ccccc3)C(C(=O)c3ccccc3)=C(C(=O)c3ccccc3)C1(c1ccccc1)c1c(-c3ccccc3)sc(-c3ccccc3)c12	–	–	inactive
CC(C)[Si](OC1=CCCCCC12C(=O)N(C)c1ccccc12)(C(C)C)C(C)C (stereo not given)	> 200	33.9	–
C=CCCCN1CCCCC1=S	> 251	> 251	–
O=C1CCC23CC(C=CC=C12)n1c(=O)n(-c2ccccc2)c(=O)n13 (stereo not given)	> 200	34.7	–
CCn1cc(C(=O)O)c(=O)c2cc3c(cc21)S(=O)(=O)CC3	> 200	> 200	–
CCO[C@@H]1C2C=CC(C2)[C@H]1[N+](=O)[O-] (stereo not given in full)	> 141	> 141	–
c1cc2c(cnc3cscc32)s1	–	–	inactive
CCOC(=O)/C=C1/SC(N2CCCCC2)C(=O)N1CC (stereo not given)	> 166	> 166	–
O=C1CCCC/C1=C/c1ccc(Cl)cc1	–	–	inactive
COC(=O)/C=C/C(=N/Nc1ccccc1)c1ccccc1	> 200	28.8	–
CCOP(=O)(c1ccccc1)C([CH2][Sn]([CH3])([CH3])[Cl])P(=O)(OC(C)C)OC(C)C (stereo not given)	> 200	4.47	–
O=C(O)c1cc(Sc2ccc([N+](=O)[O-])c(C(=O)O)c2)ccc1[N+](=O)[O-]	> 200	> 200	–
COc1ccc(OC)c(C(Cc2ccnc3ccccc23)Cc2ccnc3ccccc23)c1	> 200	26.3	–
C[C@H](CCc1nc2ccccc2n1CCN(C)C)[C@H]1CC[C@H]2[C@@H]3CC[C@@H]4C[C@H](O)CC[C@]4(C)[C@H]3CC[C@]12C	1.55	4.79	–
Nc1cc2c3c(cccc3c1)C(=O)N(CCN1CCCC1)C2=O	> 200	1.07	–
O=C1NC(=O)C(=Cc2cccc(Cl)c2)C(=O)N1	> 145	> 145	–
Cn1c(N)c(N=Nc2ccc(S(=O)(=O)Nc3ncccn3)cc2)c(=O)n(C)c1=O	> 200	> 200	–

— PubChem BioAssay AID179 (DTP/NCI, 2004)
